Data on one substance can be found in patent publication US7368287B2, “Use of L-α-lysophosphatidylcholine to obtain the differentiation of monocytes into mature dendritic cells in vitro” (Biomerieux, priority 2002, dated 2008).

Assay [1] relates to monocytes isolated from human peripheral blood. Put plainly: Phenotype (CD83, HLA-DR, CD86 expression) by flow cytometry of monocytes differentiated in absence or presence of LPC. Type of assay: cell-based. The conditions noted are these: 6th day of differentiation; 40 μM LPC added on day 5 for 24 hours. Here is the method:
Isolation, placing in culture and initiation of the differentiation of monocytes—The monocytes are isolated from human peripheral blood by means of first density gradient centrifugation (620 g; 20 minutes) in Ficoll-Hypaque, followed by second centrifugation (770 g; 20 minutes) in a 50% Percoll solution. The monocytes are then purified by immunomagnetic depletion (Dynal, Oslo, Norway), using a cocktail of anti-CD19 (hydridoma 4G7) (Becton Dickinson, Francklin Lakes, N.J., USA), anti-CD3 (OKT3, American Type Culture Collection, Rockeville, Md.) and anti-CD56 (NKH1, Beckman Coulter, Fullerton, Calif., USA) monoclonal antibodies. The monocytes thus obtained are then purified to at least 90%, as shown by the absence of CD1a markers and the presence of the CD14 marker. The differentiation of the monocytes into dendritic cells is initiated with 40 ng/ml of recombined human GM-CSF (Granulocyte-Macrophage Colony Stimulating Factor) and 250 U/ml of recombined human interleukin IL-4.
The monocytes are placed in culture in RPMI 1640 medium (Life Technologies, Rockeville, Md., USA) enriched with 2 mM of glutamine (Life Technologies), 10 mM of Hepes (Life Technologies), […] of gentamycin (Life Technologies) and 10% of lipoprotein-depleted fetal calf serum (LPDS, Sigma, St Quentin-Fallavier, France).
Treatment of the monocytes with LPC—5 days after the beginning of the differentiation of the monocytes, 40 μM of LPC (L-α-lysophosphatidylcholine; Sigma, St Quentin Fallavier, France) are added to the culture medium for 24 hours. Control cells are also obtained in the absence of LPC in the culture medium.
The cells used in this analysis are those obtained on the 6th day of differentiation according to the protocol described in example 1.
The phenotype of the “control” and “LPC” cells is analyzed by flow cytometry on a FACSCalibur (Becton Dickinson, Francklin Lakes, N.J., USA) using FITC (fluorosceine isothiocyanate)-conjugated anti-CD14, anti-HLA-DR and anti-CD80 and PE (phycoerythrin)-conjugated anti-CD1a, anti-CD83, anti-CD86 and anti-CD40 (Beckman Coulter). […]
On the technique in general: Flow cytometry measures light scatter and fluorescence of single cells or particles in a stream.

Assay [2] has the same test system. Description: Internalization capacity (endocytosis, pinocytosis, macropinocytosis) of differentiated monocytes. It is filed as cell-based. Particulars: control = 100%. Here is the method: The “control” and “LPC” cells used in this analysis are those obtained after 6 days of differentiation according to the protocol described in example 1. These cells are incubated at 37° C.: • for 30 minutes with 1 mg/ml of FITC-T70-Dextran (Sigma) in order to estimate the capacity of these cells for internalization by endocytosis, • for 30 minutes with 1 mg/ml of Lucifer Yellow (ref. L0259, Sigma, St Quentin-Fallavier, France) in order to estimate the capacity of these cells for internalization by pinocytosis, • for 3 hours with carboxylate-modified yellow-green FluoSpheres (trade name, 0.45 μm, Molecular Probes, Leiden, The Netherlands) in order to estimate the capacity of these cells for internalization by macropinocytosis.
The internalization is stopped on ice with a cold PBS buffer containing 0.1% of BSA (Bovine Serum Albumin) and 0.05% of NaN3. The “control” and “LPC” cells are washed 3 times at 4° C. in this same buffer and the fluorescence is quantified by FACScalibur (trade name, Becton Dickinson).

Assay [3] has as its system BALB/c mice. Put plainly: Inflammation of the plantar foot pad (thickening of the foot). The conditions noted are these: after 24 h. Type of assay: in vivo, mouse. Here is the method: LPC is an inflammatory product—In this example, a solution of 100 to 500 nmol of LPC dissolved in 50 μl of PBS is injected into the plantar foot pad of BALB/c mice (Charles River Laboratories) on day 0. The plantar foot pads are measured using a micrometer before and after injection, up to the 10th day, and compared to the plantar foot pads of “control” mice, obtained by injection of PBS (50 μl). The intensity of the inflammation is reflected by the thickening of the foot. The maximum thickening is observed on the 1st day, 24 h after the injection.
INTRALIPID® blocks the inflammation and the immune response induced by LPC, in vivo. In this example, 3 batches of BALB/c mice are immunized against the hen egg lysozyme (HEL) antigen by injection of 50 μl of solution into the plantar foot pad. The “HEL” control batch receives 50 μg of HEL, the “HEL+Intralipid” batch receives a mixture of INTRALIPID® (45 μl) and of 50 μg of HEL (5 μl of a solution at 10 mg/ml). The “HEL+LPC” batch receives 50 μg of HEL with 350 nmol of LPC dissolved in PBS. The “HEL+LPC+Intralipid” batch receives 50 μg of HEL mixed with 350 nmol of LPC dissolved in 45 μl of INTRALIPID®. After 24 hours, the thickness of the foot pads is measured using a micrometer, and compared with the measurement taken before injection. The difference in thickness is proportional to the intensity of the inflammation.

The test system of assay [4] is BALB/c mice. Put plainly: Delayed contact hypersensitivity to the hapten DNFB (ear edema). It is filed as in vivo, mouse. The conditions noted are these: 500 nmol LPC on back 10 minutes before DNFB sensitization, 48 h after elicitation. The text has this: LPC can induce a CD8+ T lymphocyte response in vivo. In this example, a test for delayed contact hypersensitivity to haptens was used. In this model, BALB/c mice are sensitized by application of a hapten, DNFB (1-fluoro-2,4-dinitrobenzene, 0.5% solution in 1:1 olive oil/acetone), to the back. Five days later, a non-irritant dose of DNFB (0.2% solution in 1:1 olive oil/acetone) is applied to the left ear, whereas the right ear receives the solvent. In this elicitation phase, CD8^+ T lymphocytes specific for the haptenized proteins are recruited and infiltrate the ear, secreting γIFN and producing an edema.
A “control” batch of mice was sensitized with DNFB alone and another batch (“LPC” mice) received 500 nmol of LPC by application to the skin of the back of 20 μl of an ethanolic solution of LPC, 10 minutes before the application of DNFB. Five days later, the two batches were treated in the same way for the elicitation phase and the thickening of the ears was measured using a micrometer 48 h after this application.

Regarding L-α-lysophosphatidylcholine [LPC], the “Expression of CD83” value in assay [1] turned out to be 11.74. Moreover, the “Expression of CD86” value in assay [1] came to 759.69. Further, the “Expression of HLA-DR” value in assay [1] is 146.31. Besides, the “Capacity for internalization by endocytosis” value in assay [2] (FITC-T70-Dextran 30 minutes) was found to be 53%. Besides, the “Capacity for internalization by macropinocytosis” value in assay [2] (FluoSpheres 3 hours) is reported as 66%. The “Capacity for internalization by pinocytosis” value in assay [2] (Lucifer Yellow 30 minutes) was 49%. Also, the “Thickening of the foot” value with BALB/c mice [3] (LPC 100 nmol in 50 μl PBS into plantar foot pad) is 0.35 mm; in the assay on BALB/c mice [3] (LPC 200 nmol), 0.55 mm; with BALB/c mice [3] (LPC 300 nmol), 0.725 mm; in the assay with BALB/c mice [3] (LPC 400 nmol), 1.125 mm; in the assay on BALB/c mice [3] (LPC 500 nmol), 1.075 mm. Further, in the assay on BALB/c mice [4] (left ear receives DNFB 0.2%), the “Thickening of the left ear” value was found to be 149 ± 31 μm. Besides, in the assay with BALB/c mice [4] (right ear receives solvent), the “Thickening of the right ear” value was 0 ± 3 μm.
